Measured values published in ChEMBL document CHEMBL6096629, “Indolo[3,2-c]isoquinoline Hydroxamic Acid Derivatives as Novel Orally Topoisomerase-Histone Deacetylase Dual Inhibitors for NSCLC Therapy” (J Med Chem, 2025).
pIC50: −log10 of the molar value.

Columns and labels:
[1] = test system: NCI-H1975; assay: Induction of apoptosis in human NCI-H1975 cells at 4 uM incubated for 24 hrs by Annexin V-FITC/PI staining based flow cytometry relative to control; type: functional
[2] = test system: NCI-H1975; assay: Induction of apoptosis in human NCI-H1975 cells at 4 uM incubated for 24 hrs in presence of Irinotecan by Annexin V-FITC/PI staining based flow cytometry relative to control; type: functional
[3] = test system: NCI-H1975; assay: Induction of cell cycle arrest in human NCI-H1975 cells assessed as accumulation at G2/M phase at 4 uM incubated for 48 hrs in presence of Irinotecan by PI staining based flow cytometry relative to control; type: functional
[4] = test system: NCI-H1975; assay: Induction of cell cycle arrest in human NCI-H1975 cells assessed as accumulation at G2/M phase at 4 uM incubated for 48 hrs by PI staining based flow cytometry relative to control; type: functional
[5] = Toxicity BALB/c nude mouse xenografted with human NCI-H1975 cells assessed as body weight loss at 100 mg/kg, po qd in presence of Irinotecan treated for 21 days (Rvb > 11.5 %); type: organism-based; conditions: in vivo, 504 h, time 21 day
[6] = test system: NCI-H1975; assay: Induction of DNA damage in human NCI-H1975 cells assessed as DNA tail formation at 8 uM incubated for 48 hrs by Comet assay relative to control; type: functional
[7] = test system: NCI-H1975; assay: Induction of apoptosis in human NCI-H1975 cells incubated for 24 hrs in presence of SAHA by Annexin V-FITC/PI staining based flow cytometry relative to control; type: functional
[8] = test system: PC-3; assay: Antiproliferative activity against human PC-3 cells incubated for 24 hrs in presence of SAHA by MTT assay; type: functional, cell-based; conditions: PC-3, 24 h
[9] = test system: Huh-7; assay: Antiproliferative activity against human Huh-7 cells incubated for 24 hrs by MTT assay; type: functional, cell-based; conditions: Huh-7, 24 h
[10] = test system: NCI-H1975; assay: Inhibition of cell migration in human NCI-H1975 cells measured after 24 to 48 hrs in presence of SAHA by wound healing assay relative to control; type: functional; conditions: time 24-48 hrs
[11] = test system: MCF7; assay: cells; conditions: Homo sapiens, MCF7, 24 h
Description: Antiproliferative activity against human MCF7 cells incubated for 24 hrs in presence of SAHA by MTT assay

[12] = test system: NCI-H1975; assay: Induction of cell cycle arrest in human NCI-H1975 cells assessed as accumulation at G2/M phase incubated for 48 hrs in presence of SAHA by PI staining based flow cytometry relative to control; type: functional
[13] = test system: NCI-H1975; assay: Antitumor activity against human NCI-H1975 cells xenografted in BALB/c nude mouse at 10 mg/kg, ip bid treated for 21 days in presence of SAHA relative to control; type: functional; conditions: time 21 day
[14] = test system: NCI-H1975; assay: Inhibition of colony formation in human NCI-H1975 cells incubated for 24 hrs followed by re-culturing in fresh medium without compound measured after 14 days in presence of SAHA by crystal violet staining based analysis relative to control; type: functional
[15] = test system: MDA-MB-231; assay: cells; type: functional, cell-based; conditions: Homo sapiens, MDA-MB-231, 24 h
[16] = test system: Huh-7; assay: Antiproliferative activity against human Huh-7 cells incubated for 24 hrs in presence of SAHA by MTT assay; type: functional, cell-based; conditions: Huh-7, 24 h
[17] = test system: NCI-H2228; assay: Antiproliferative activity against human NCI-H2228 cells incubated for 24 hrs in presence of SAHA by MTT assay; type: functional, cell-based; conditions: NCI-H2228, 24 h
[18] = test system: NCI-H2228; assay: Antiproliferative activity against human NCI-H2228 cells incubated for 24 hrs by MTT assay; type: functional, cell-based; conditions: NCI-H2228, 24 h
[19] = test system: MDA-MB-231; assay: cells; conditions: Homo sapiens, MDA-MB-231, 24 h
Description: Antiproliferative activity against human MDA-MB-231 cells incubated for 24 hrs in presence of SAHA by MTT assay

[20] = Toxicity BALB/c nude mouse xenografted with human NCI-H1975 cells assessed as body weight loss at 10 mg/kg, ip bid in presence of SAHA treated for 21 days (Rvb > 11.5 %); type: organism-based; conditions: in vivo, 504 h, time 21 day
[21] = test system: HCT-116; assay: cells; conditions: Homo sapiens, HCT-116, 24 h
Description: Antiproliferative activity against human HCT-116 cells incubated for 24 hrs in presence of SAHA by MTT assay

Question: Which Activity [1] does the source give for `O=C(CCCCCCC(=O)Nc1ccccc1)NO` [VORINOSTAT] here?
Answer: Its Activity is 46%.

Question: What about the Activity [2] of the same compound?
Answer: Its Activity is 56.1%.

Question: What about the Activity [3] of the same compound?
Answer: The Activity was 35%.

Question: And the Activity [4]?
Answer: The Activity was 30.4%.

Question: And the Activity [5]?
Answer: Its Activity is 22.4%.

Question: What about the Activity [6] of the same compound?
Answer: The Activity was 19.4%.

Question: What does the source list for `CCc1c2c(nc3ccc(OC(=O)N4CCC(N5CCCCC5)CC4)cc13)-c1cc3c(c(=O)n1C2)COC(=O)[C@]3(O)CC` [IRINOTECAN]?
Answer: Activity [7]: 56.1%; pIC50 [8]: 5.91; pIC50 [9]: < 5.10; inhibition (INH) [10]: 40.7%; pIC50 [11]: 6.01; Activity [12]: 35%; inhibition in vivo at 10 mg/kg ([13]; Mus musculus, NCI-H1975, 504 h, read-out: TGI): 65.8%; T/C [13]: 39.1%; inhibition (INH) [14]: 61.8%; pIC50 [15]: < 5.10; pIC50 [16]: 5.75; pIC50 [17]: 5.84; pIC50 [18]: 5.46; pIC50 [19]: 5.87; Activity [20]: 22.4%; pIC50 [21]: 6.14
